{
  "source": "patent US7488751B2",
  "about": "“Antidepressant cycloalkylamine derivatives of 2,3-dihydro-1,4-benzodioxan” (Wyeth, priority 2002, dated 2009)",
  "key": {"serotonin transporter": {"target": "T1, serotonin transporter (Rattus norvegicus, UniProt P31652)", "T1 construct": "displace ^3H-paroxetine from male rat frontal cortical membranes; from tissue; host or cells: male rat frontal cortex membranes", "T1 sequence (P31652 whole entry)": "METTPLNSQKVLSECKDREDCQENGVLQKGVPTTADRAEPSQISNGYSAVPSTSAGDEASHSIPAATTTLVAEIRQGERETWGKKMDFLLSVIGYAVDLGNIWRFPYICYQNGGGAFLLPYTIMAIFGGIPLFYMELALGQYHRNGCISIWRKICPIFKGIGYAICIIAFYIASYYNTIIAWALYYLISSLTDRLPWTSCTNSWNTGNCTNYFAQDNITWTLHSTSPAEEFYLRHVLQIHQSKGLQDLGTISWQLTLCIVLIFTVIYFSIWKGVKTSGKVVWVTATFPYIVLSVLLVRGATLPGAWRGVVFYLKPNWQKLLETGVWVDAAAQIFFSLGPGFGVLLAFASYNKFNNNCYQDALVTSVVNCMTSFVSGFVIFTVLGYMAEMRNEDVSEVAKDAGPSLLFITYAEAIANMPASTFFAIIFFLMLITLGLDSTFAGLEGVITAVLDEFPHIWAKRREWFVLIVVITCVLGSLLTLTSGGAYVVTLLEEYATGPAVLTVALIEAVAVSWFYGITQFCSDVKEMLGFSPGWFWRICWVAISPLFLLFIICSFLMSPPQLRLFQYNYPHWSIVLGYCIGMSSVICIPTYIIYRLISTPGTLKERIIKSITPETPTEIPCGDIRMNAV", "assay": "3H-paroxetine displacement, affinity for the serotonin transporter", "type": "binding", "details": "displacement of 3H-paroxetine from male rat frontal cortical membranes; read-out: 5-HT Transporter Affinity Ki"}, "human 5-HT1A receptors": {"target": "T2, human 5-HT1A receptors (Homo sapiens, UniProt P08908)", "T2 construct": "expressed in transfected cells; host or cells: CHO cells (stably transfected)", "T2 sequence (P08908 1-422)": "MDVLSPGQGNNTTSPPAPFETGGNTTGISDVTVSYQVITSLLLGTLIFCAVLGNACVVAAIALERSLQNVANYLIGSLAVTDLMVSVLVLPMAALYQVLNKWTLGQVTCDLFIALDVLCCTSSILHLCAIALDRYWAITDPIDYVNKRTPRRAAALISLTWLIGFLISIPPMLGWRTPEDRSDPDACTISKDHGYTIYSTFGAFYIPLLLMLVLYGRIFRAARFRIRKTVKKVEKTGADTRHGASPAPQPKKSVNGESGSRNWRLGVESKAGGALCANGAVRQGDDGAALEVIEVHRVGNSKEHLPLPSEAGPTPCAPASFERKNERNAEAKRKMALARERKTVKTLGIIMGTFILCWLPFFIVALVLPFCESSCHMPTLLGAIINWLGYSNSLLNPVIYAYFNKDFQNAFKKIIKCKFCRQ", "assay": "[3H] 8-OHDPAT displacement from the 5-HT1A serotonin receptor (transfected CHO cells)", "type": "binding", "details": "displacement of [3H] 8-OHDPAT; CHO cells stably transfected with human 5-HT1A receptors; read-out: 5-HT1A Receptor Affinity Ki", "from_the_text": "High affinity for the serotonin 5-HT1A receptor was established by testing the claimed compound's ability to displace [^3H] 8-OHDPAT (dipropylaminotetralin) from the 5-HT1A serotonin receptor following a modification of the procedure of Hall et al., J. Neurochem. 44, 1685 (1985) which utilizes CHO cells stably transfected with human 5-HT1A receptors."}, "[1]": {"target": "T3, cloned human 5-HT1A receptors (Homo sapiens, UniProt P08908)", "T3 construct": "expressed in transfected cells", "T3 sequence (P08908 1-422)": "T2 sequence (P08908 1-422)", "assay": "35S-GTPγS binding assay, 5-HT1A function", "type": "biochemical", "details": "for pIC50: antagonist potency, reversal of effects of standard agonist 8-OHDPAT on 35S-GTPγS binding; for 5-HT1A Function (Imax): maximum inhibitory effect, 35S-GTPγS binding, reversal of 8-OHDPAT, unit assumed", "procedure": "Antagonist activity at 5-HT1A receptors was established by using a ^35S-GTPγS binding assay similar to that used by Lazareno and Birdsall (Br. J. Pharmacol. 109: 1120, 1993), in which the test compound's ability to affect the binding of ^35S-GTPγS to membranes containing cloned human 5-HT1A receptors was determined. Agonists produce an increase in binding whereas antagonists produce no increase but rather reverse the effects of the standard agonist 8-OHDPAT. The test compound's maximum inhibitory effect is represented as the Imax, while its potency is defined by the IC50."}, "[2]": {"target": "T3, cloned human 5-HT1A receptors", "assay": "35S-GTPγS binding assay, 5-HT1A function", "type": "biochemical"}},
  "note": "pIC50, pKi: −log10 of the molar value.",
  "data": [
    {"compound": "COc1cccc2c1O[C@@H](CN[C@H]1CC[C@H](c3c[nH]c4ccc(F)cc34)C1)CO2", "note": "(mixture of isomers) [Example 2, N-[(trans)-3-(5-fluoro-1H-indol-3-yl)cyclopentyl]-N-{[(2S)-8-methoxy-2,3 dihydro-1,4-benzodioxin-2-yl]methyl}amine]", "values": [
      {"measurement": "pKi", "setting": "serotonin transporter", "result": 9.22},
      {"measurement": "pKi", "setting": "human 5-HT1A receptors", "result": 7.84},
      {"measurement": "pIC50", "setting": "[1]", "result": 8.15},
      {"measurement": "5-HT1A Function (Imax)", "setting": "[1]", "result": 99, "unit": "%"}
    ]},
    {"compound": "COc1cccc2c1O[C@@H](CN[C@H]1CC[C@@H](c3cn(C)c4ccc(F)cc34)C1)CO2", "note": "(mixture of isomers) [Example 3, N-[(cis)-3-(5-fluoro-1-methyl-1H-indol-3-yl)cyclopentyl]-N-{[(2S)-8-methoxy-2,3-dihydro-1,4-benzodioxin-2-yl]methyl}amine]", "values": [
      {"measurement": "pKi", "setting": "serotonin transporter", "result": 7.92},
      {"measurement": "pKi", "setting": "human 5-HT1A receptors", "result": 7.97},
      {"measurement": "pIC50", "setting": "[1]", "result": 6.82},
      {"measurement": "5-HT1A Function (Imax)", "setting": "[1]", "result": 64, "unit": "%"}
    ]},
    {"compound": "COc1cccc2c1O[C@@H](CN[C@H]1CC[C@H](c3cn(C)c4ccc(F)cc34)C1)CO2", "note": "(mixture of isomers) [Example 4, N-[(trans)-3-(5-fluoro-1-methyl-1H-indol-3-yl)cyclopentyl]-N-{[(2S)-8-methoxy-2,3-dihydro-1,4-benzodioxin-2-yl]methyl}amine]", "values": [
      {"measurement": "pKi", "setting": "serotonin transporter", "result": 8.41},
      {"measurement": "pKi", "setting": "human 5-HT1A receptors", "result": 8.52},
      {"measurement": "pIC50", "setting": "[1]", "result": 7.28},
      {"measurement": "5-HT1A Function (Imax)", "setting": "[1]", "result": 79, "unit": "%"}
    ]},
    {"compound": "CCOc1cccc2c1O[C@@H](CN[C@H]1CC[C@@H](c3c[nH]c4ccc(F)cc34)C1)CO2", "note": "(mixture of isomers) [Example 5, N-{[(2S)-8-ethoxy-2,3-dihydro-1,4-benzodioxin-2-yl]methyl}-N-[(cis)-3-(5-fluoro-1H-indol-3-yl)cyclopentyl]amine]", "values": [
      {"measurement": "pKi", "setting": "serotonin transporter", "result": 9.22},
      {"measurement": "pKi", "setting": "human 5-HT1A receptors", "result": 8.09},
      {"measurement": "pIC50", "setting": "[1]", "result": 6.98},
      {"measurement": "5-HT1A Function (Imax)", "setting": "[1]", "result": 48, "unit": "%"}
    ]},
    {"compound": "CCOc1cccc2c1O[C@@H](CN[C@H]1CC[C@H](c3c[nH]c4ccc(F)cc34)C1)CO2", "note": "(mixture of isomers) [Example 6, N-{[(2S)-8-ethoxy-2,3-dihydro-1,4-benzodioxin-2-yl]methyl}-N-[(trans)-3-(5-fluoro-1H-indol-3-yl)cyclopentyl]amine]", "values": [
      {"measurement": "pKi", "setting": "serotonin transporter", "result": 9.37},
      {"measurement": "pKi", "setting": "human 5-HT1A receptors", "result": 7.60},
      {"measurement": "pIC50", "setting": "[1]", "result": 6.44},
      {"measurement": "5-HT1A Function (Imax)", "setting": "[1]", "result": 25, "unit": "%"}
    ]},
    {"compound": "COc1cccc2c1O[C@@H](CN[C@@H]1CC[C@H](c3c[nH]c4ccc(F)cc34)C1)CO2", "note": "(single isomer, unassigned) [Example 1-Isomer A, N-[(1R*,3S*)-3-(5-fluoro-1H-indol-3-yl)cyclopentyl]-N-{[(2S)-8-methoxy-2,3-dihydro-1,4-benzodioxin-2-yl]methyl}amine]", "values": [
      {"measurement": "pKi", "setting": "serotonin transporter", "result": 8.89},
      {"measurement": "pKi", "setting": "human 5-HT1A receptors", "result": 8.12},
      {"measurement": "pIC50", "setting": "[1]", "result": 7.52},
      {"measurement": "5-HT1A Function (Imax)", "setting": "[1]", "result": 78, "unit": "%"}
    ]},
    {"compound": "COc1cccc2c1O[C@@H](CN[C@H]1CC[C@@H](c3c[nH]c4ccc(F)cc34)C1)CO2", "note": "(single isomer, unassigned) [Example 1-Isomer B, N-[(1S*,3R*)-3-(5-fluoro-1H-indol-3-yl)cyclopentyl]-N-{[(2S)-8-methoxy-2,3-dihydro-1,4-benzodioxin-2-yl]methyl}amine]", "values": [
      {"measurement": "pKi", "setting": "serotonin transporter", "result": 8.72},
      {"measurement": "pKi", "setting": "human 5-HT1A receptors", "result": 8.44},
      {"measurement": "pIC50", "setting": "[1]", "result": 7.66},
      {"measurement": "5-HT1A Function (Imax)", "setting": "[1]", "result": 100, "unit": "%"}
    ]},
    {"compound": "COc1cccc2c1O[C@@H](CN[C@H]1CC[C@H](c3c[nH]c4ccc(F)cc34)C1)CO2", "note": "(single isomer, unassigned) [Example 2-Isomer A, N-[(1S*,3S*)-3-(5-fluoro-1H-indol-3-yl)cyclopentyl]-N-{[(2S)-8-methoxy-2,3-dihydro-1,4-benzodioxin-2-yl]methyl}amine]", "values": [
      {"measurement": "pKi", "setting": "serotonin transporter", "result": 9.00},
      {"measurement": "pKi", "setting": "human 5-HT1A receptors", "result": 7.63},
      {"measurement": "pIC50", "setting": "[1]", "result": 6.43},
      {"measurement": "5-HT1A Function (Imax)", "setting": "[1]", "result": 84, "unit": "%"}
    ]},
    {"compound": "COc1cccc2c1O[C@@H](CN[C@@H]1CC[C@@H](c3c[nH]c4ccc(F)cc34)C1)CO2", "note": "(single isomer, unassigned) [Example 2-Isomer B, N-[(1R*,3R*)-3-(5-fluoro-1H-indol-3-yl)cyclopentyl]-N-{[(2S)-8-methoxy-2,3-dihydro-1,4-benzodioxin-2-yl]methyl}amine]", "values": [
      {"measurement": "pKi", "setting": "serotonin transporter", "result": 9.10},
      {"measurement": "pKi", "setting": "human 5-HT1A receptors", "result": 8.69},
      {"measurement": "pIC50", "setting": "[1]", "result": 7.12},
      {"measurement": "5-HT1A Function (Imax)", "setting": "[1]", "result": 32, "unit": "%"}
    ]},
    {"compound": "COc1cccc2c1O[C@@H](CN[C@@H]1CC[C@H](c3c[nH]c4ccc(C#N)cc34)C1)CO2", "note": "(single isomer, unassigned) [Example 7-Isomer A]", "values": [
      {"measurement": "pKi", "setting": "serotonin transporter", "result": 9.19},
      {"measurement": "pKi", "setting": "human 5-HT1A receptors", "result": 8.28}
    ]},
    {"compound": "COc1cccc2c1O[C@@H](CN[C@H]1CC[C@H](c3c[nH]c4ccc(C#N)cc34)C1)CO2", "note": "(single isomer, unassigned) [Example 7-Isomer B]", "values": [
      {"measurement": "pKi", "setting": "serotonin transporter", "result": 9.24},
      {"measurement": "pKi", "setting": "human 5-HT1A receptors", "result": 8.02},
      {"measurement": "pIC50", "setting": "[1]", "result": 7.62},
      {"measurement": "5-HT1A Function (Imax)", "setting": "[1]", "result": 56, "unit": "%"}
    ]},
    {"compound": "COc1cccc2c1O[C@@H](CN[C@@H]1CC[C@H](c3cn(C)c4ccc(C#N)cc34)C1)CO2", "note": "(single isomer, unassigned) [Example 8-Isomer A]", "values": [
      {"measurement": "pKi", "setting": "serotonin transporter", "result": 8.22},
      {"measurement": "pKi", "setting": "human 5-HT1A receptors", "result": 7.90},
      {"measurement": "EC50", "setting": "[2]; given as EC50", "result": 23, "unit": "nM"},
      {"measurement": "Emax", "setting": "[2]; given as Emax", "result": 64, "unit": "%"}
    ]},
    {"compound": "COc1cccc2c1O[C@@H](CN[C@H]1CC[C@H](c3cn(C)c4ccc(C#N)cc34)C1)CO2", "note": "(single isomer, unassigned) [Example 8-Isomer B]", "values": [
      {"measurement": "pKi", "setting": "serotonin transporter", "result": 8.10},
      {"measurement": "pKi", "setting": "human 5-HT1A receptors", "result": 7.59}
    ]},
    {"compound": "COc1cccc2c1OC(CNC1CCC(c3c[nH]c4ccc(F)cc34)C1)CO2", "note": "[Example 1, N-[(cis)-3-(5-fluoro-1H-indol-3-yl)cyclopentyl]-N-{([(2S)-8-methoxy-2,3-dihydro-1,4-benzodioxin-2-yl]methyl}amine]", "values": [
      {"measurement": "pKi", "setting": "serotonin transporter", "result": 8.97},
      {"measurement": "pKi", "setting": "human 5-HT1A receptors", "result": 8.24},
      {"measurement": "pIC50", "setting": "[1]", "result": 7.26},
      {"measurement": "5-HT1A Function (Imax)", "setting": "[1]", "result": 100, "unit": "%"}
    ]}
  ]
}
